Values of other authors as cited in patent publication US7332526B2 (Allergan, Inc., priority 2003, dated 2008).
No end group written: not given here.

Legend:
[1] = in vivo
[2] = test system: wounded corneal epithelial cells; conditions: in vitro, rabbit cells

## CCNC(=O)CCC/C=C\C[C@@H]1[C@@H](/C=C/[C@@H](O)CCc2ccccc2)[C@H](O)C[C@@H]1O [bimatoprost]
[1]
  hyperemia and other irritating side effects compared to certain prostaglandins: significantly less hyperemia and other irritating side effects

## TFF3: human trefoil factor family peptide with one trefoil domain, produced by goblet cells of small and large intestine (EEYVGLSANQCAVPAKDRVDCGYPHVTPKECNNRGCCFDSRIPGVPWCFKPLQEAECTF; ends and bridges not checked; cysteine pairing not given here; UniProt Q07654 22-80, looked up)
[2]
  migration of wounded corneal epithelial cells: promote the migration

B1: TFF2: human trefoil factor family peptide containing two trefoil domains, produced by mucus-producing cells of stomach (protein, UniProt Q03403 24-129, looked up)
Trefoil factor 2: EKPSPCQCSRLSPHNRTNCGFPGITSDQCFDNGCCFDSSVTGVPWCFHPLPKQESDQCVMEVSDRRNCGYPGISPEECASRKCCFSNFIFEVPWCFFPKSVEDCHY
[2]
  migration of wounded corneal epithelial cells: promote the migration
